Converted amounts (≈) assume the structure as drawn.
Tests used:
[1] = Film morphology of agent in PLGA 85/15 film cast from anisole; assay type: physicochemical; set-up: key: A—Amorphous; D—Dispersion; C—Crystalline
[2] = cited from earlier work
[3] = 5% agent in PLGA 85/15 film cast from anisole
[4] = 10% agent in PLGA 85/15 film cast from anisole
[5] = 25% agent in PLGA 85/15 film cast from anisole
[6] = 50% agent in PLGA 85/15 film cast from anisole
[7] = 75% agent in PLGA 85/15 film cast from anisole
[8] = 90% agent in PLGA 85/15 film cast from anisole

| Compound | Film Morphology [1, 3] | Film Morphology [1, 4] | Film Morphology [1, 5] | Film Morphology [1, 6] | Film Morphology [1, 7] | Film Morphology [1, 8] | water solubility [2] [µg/mL] |
| --- | --- | --- | --- | --- | --- | --- | --- |
| Cc1cc(C(C)(C)C)c(O)c(C(C)(C)C)c1 [BHT, butylated hydroxy toluene] | A | A | A | D | Mixed | C | – |
| CC[C@@H]1/C=C(\C)C[C@H](C)C[C@H](OC)[C@H]2O[C@@](O)(C(=O)C(=O)N3CCCC[C@H]3C(=O)O[C@H](/C(C)=C/[C@@H]3CC[C@H](Cl)[C@H](OC)C3)[C@H](C)[C@@H](O)CC1=O)[C@H](C)C[C@@H]2OC [Pimecrolimus, reference compound] | – | A | Mixed | C | – | – | – |
| Nc1nc(Cl)nc2c1ncn2[C@H]1C[C@H](O)[C@@H](CO)O1 [cladribine] | – | – | – | – | – | – | 200 (≈ 700 µM) |
| O=C(OCc1ccccc1)c1ccccc1 [Benzyl Benzoate] | A | A | – | – | – | – | – |
| CCCOC(=O)c1ccc(O)cc1 [Propyl 4-hydroxybenzoate] | A | A | Mixed | C | C | C | – |
| CCCCOC(=O)c1ccc(O)cc1 [Butyl 4-Hydroxybenzoate] | A | A | A | C | C | C | – |
